ChEMBL document CHEMBL1149989, “Synthesis and biological evaluation of flavonoids and related compounds as gastroprotective agents” (1996)

Each molecule was assayed on Rattus norvegicus (assay: Compound was tested for gastroprotective activity in rat ethanol-induced damage model following oral administration (0.1 mg/kg).). Conditions: not given.
Assay type: functional

First: CN/C(=N\CCSCc1nc[nH]c1C)NC#N [CIMETIDINE]
Second: CCCCC[C@H](O)/C=C/[C@H]1[C@H](O)CC(=O)[C@@H]1C/C=C\CCCC(=O)O [DINOPROSTONE]
The Protection of the first is lower: 14% for the first, 64% for the second.

What follows are molecules tested on Rattus norvegicus (assay: Effective dose gastroprotective activity in rat ethanol-induced damage model following intraperitoneal administration.). Conditions: ip.
Assay type: functional

Molecule CCc1cc(=O)c2ccccc2o1 has an ED50 of 4.3 mg/kg.

The molecules below were run on Rattus norvegicus (assay: Gastroprotective activity in rat ethanol-induced damage model following intraperitoneal administration.). Conditions: not given.
Assay type: functional
Set-up: concentration or dose not given beside the values

First: O=c1cc(-c2cccnc2)oc2ccccc12
Second: O=c1cc(-c2ccccc2)oc2ccccc12 [FLAVONE]
The Protection of the first is higher: 97% for the first, 88% for the second.

First: Nc1ccccc1C(=O)/C=C/c1ccccc1
Second: O=C(/C=C/c1ccccc1)c1ccccc1 [CHALCONE]
The Protection of the first is higher: 36% for the first, 32% for the second.

First: Cc1cc(=O)c2ccccc2o1
Second: CCc1cc(=O)c2ccccc2o1
The Protection of the first is higher: 76% for the first, 74% for the second.

Compared with O=c1cc(-c2cccs2)oc2ccccc12, Cn1c(-c2cc(=O)c3ccccc3o2)cc2ccccc21 is lower in Protection: 82% for the first, 74% for the second.

Going from S=c1cc(-c2ccccc2)oc2ccccc12 to Oc1cc(-c2ccccc2)nc2ccccc12, the Protection falls from 58% to 17%.

Going from COc1ccccc1C(=O)CC(=O)c1ccccc1 to COc1cccc2c1C(=O)CC(c1ccccc1)O2 (configuration not stated), the Protection rises from 19% to 32%.

First: COc1cccc2oc(C)cc(=O)c12
Second: O=c1cc(-c2ccccc2)sc2ccccc12
The Protection of the first is higher: 81% for the first, 67% for the second.

Work on O=C1CC(c2ccccc2)Oc2ccccc21 (configuration not stated) [FLAVANONE] yielded a Protection of 24%.

For CC(C)Oc1ccc2c(=O)c(-c3ccccc3)coc2c1 [IPRIFLAVONE], the Protection was <10%.
With O=c1c(-c2ccccc2)coc2ccccc12 [ISOFLAVONE] the Protection was <10%.

Each molecule was assayed on Rattus norvegicus (assay: Effective dose for gastroprotective activity in rat ethanol-induced damage model following intraperitoneal administration.). Conditions: ip.
Assay type: functional

Cc1cc(=O)c2ccccc2o1 and O=c1cc(-c2ccccc2)oc2ccccc12 [FLAVONE] are within 1.5-fold of each other in ED50: 5.4 mg/kg for the first, 6.9 mg/kg for the second.
